Patent US20240226042A9, “A PROPYL PROPANE THI[…] FOR USE AS ANTITUMORAL” (DMC RESEARCH CENTER, SL, priority 2021, published 2024)

Assays:
[1] = system: A-549 (human lung adenocarcinoma line); details: A-549 cells, 72 hours induction, SRB; means±SEM of six independent determinations
Text: (§1) A-549 (Reference CCL-185 of the American Type Culture Collection): It is a tumor line of basal alveolar epithelium that comes from a pulmonary adenocarcinoma removed from a patient. These cells are squamous and can synthesize lecithin. T-84 (Reference CCL-248 of the American Type Culture Collection): It is a tumor line with epithelial morphology, isolated from a pulmonary metastasis of a colorectal carcinoma of a patient. These cells present receptors for a large group of hormones and neurotransmitters, and they produce carcinoembryonic antigen (CEA) and keratin, among other cellular products.
(§2) Adherent cells (MCF-7, A-549, T-84, HT-29 and Panc-1), were detached from the surface of the culture flasks, using 3-4 ml of trypsin 1×, and left to act for 5-10 minutes in an incubator at 37° C. with 5% CO2. Once the cells were detached, the trypsinization was stopped, adding to the medium flask the same amount of complete culture as trypsin used to detach cells. After resuspending the mixture of trypsin and detached cells several times, the content of the culture flask was transferred to a sterile tube to centrifugation it for 5 minutes at 1500-1600 rpm.
(§3) Adherent cells were incubated for 24 hours to get cells attached to the surface of the flask. […]

[2] = system: T-84 (human colorectal adenocarcinoma line); details: T-84 cells, 72 hours induction, SRB; means±SEM of six independent determinations
Text: as §1, §2, §3

[3] = system: MCF-7 (human breast adenocarcinoma line)
Description: as §2
(§4) Adherent cells were incubated for 24 hours to get cells attached to the surface of the flask. Then, the culture medium was replaced for a new medium, to which increasing concentrations of PTSO had been added, and the induction was conducted for 72 hours.

[4] = system: Panc-1 (human pancreatic carcinoma line); details: Panc-1 cells, 72 hours induction, SRB; means±SEM of six independent determinations
Description: as §2, §4

[5] = system: HT-29 (human colorectal carcinoma line); details: HT-29 cells, 72 hours induction, SRB; means±SEM of six independent determinations
Description: as §2, §4

[6] = system: Jurkat (human tumor T lymphocytes line)
Description: as §4

[7] = system: normal human peripheral blood mononuclear cells (PBMCs); details: normal PBMCs from healthy volunteers, 72 hours induction, MTT; means±SEM of six independent determinations
Description: as §4

rats = details: OECD guideline 408, 90-days oral subchronic toxicity study; cited from earlier work

CCCSS(=O)(=O)CCC [PTSO, propyl propane thiosulfonate]
IC50 [1]: 38.6 µM | IC50 [2]: 37.3 µM | in vitro T.I (IC50 Normal Line/IC50 Tumor Line) ([3]; IC50 PBMCs / IC50 MCF-7 tumor line): 36.0 | IC50 ([3]; MCF-7 cells, 72 hours induction, SRB, means±SEM of six independent determinations): 6.9 µM | IC50 [4]: 33.8 µM | IC50 [5]: 50.8 µM | in vitro T.I (IC50 Normal Line/IC50 Tumor Line) ([6]; IC50 PBMCs / IC50 Jurkat tumor line): 15.8 | IC50 ([6]; Jurkat cells, 72 hours induction, MTT, means±SEM of six independent determinations): 15.7 µM | IC50 [7]: 248 µM | no-observed-adverse-effect level (NOAEL) (rats): 55 mg/kg/day
